The record followed here is US6673827B1, “Methods of treating fungal infections with inhibitors of NAD synthetase enzyme” (priority 1999, dated 2004).

The target in assay [1] is T1, NAD synthetase (recombinant protein from B. subtilis; purified) (Bacillus subtilis, UniProt P08164).
T1 construct: made in house
In words: NAD synthetase enzyme inhibition assay (coupled enzymatic assay, HTS). It is filed as biochemical. How it is done:
NAD Synthetase Enzyme Inhibition Assay-Determination of Test Compound Concentrations Providing 50% Inhibition ([…]) of the Maximum Enzyme Rate
The potential inhibitory activity of the synthetic compounds was determined by the use of a coupled enzymatic assay. The coupled assay involves two steps as summarized below. [drawing 98]
The measurement of inhibitory activities of the test compounds was facilitated by the use of a high through-put screening system (HTS system). The HTS system utilizes an integrated Sagian 2M ORCA robotic system coordinating the functions of a Beckman Biomek 2000 liquid handler and a Molecular Devices SpectraMax Plus spectrophotometer. The 2M ORCA robotic station is responsible for the movement of all hardware and the integration of multiple stations on the worksurface. The Biomek 2000 is programmed to perform all phases of liquid dispensing and mixing. The SpectraMax Plus spectrophotometer is equipped to monitor absorbance in a 96-well plate format.
The Biomek 2000 mixes these components utilizing a predefined mixing program. […] The reaction is monitored by measuring the increase in absorbance at 340 nm (NADH). The linear portion of the reaction is monitored for 180 sec. The initial velocity is determined using Softmax Pro, the software supplied with the Molecular Devices SpectrMax Plus spectrophotometer.
The test compounds were supplied as a stock solution with a concentration of 50 mM dissolved in 100% dimethyl sulfoxide (DMSO). An initial screen was conducted on all compounds using a 2 or 3 concentration screen. The 2 panel screen used concentrations of 0.2 mM and 0.1 mM for the compounds. The 3 panel screen used concentrations of 0.2 mM, 0.1 mM, and 0.05 mM. […] The IC50 values for each compound were determined graphically from a plot of % inhibition versus […].

The subject of assay [2] is Candida albicans (ATCC 10231). In words: Minimum Inhibitory Concentration (MIC) against yeast, broth dilution. It is filed as cell-based. As to conditions: for MIC: Candida albicans, read-out: MIC Candida albicans (ATCC 10231).
For assay [3], the system named is Candida tropicalis (ATCC 28707-amphotericin B-resistant). The assay is described as above. It counts as cell-based. The settings on record: Candida tropicalis, ATCC28707, 37° C., 20 hours, mean of duplicate.
The test system of assay [4] is Candida tropicalis (ATCC 750). The assay is described as above. It counts as cell-based. The settings on record: Candida tropicalis, ATCC750; 37° C., 20 hours, mean of duplicate.
Assay [5] relates to Candida tropicalis ATCC 750. In words: In vitro study of inhibition of growth and lethality against yeast (MIC/MLC susceptibility test), isolate A. The settings on record: Candida tropicalis, 2nd pair of lines, isolate assigned by line order. It counts as cell-based.
The subject of assay [6] is Candida tropicalis ATCC 28707. In words: In vitro study of inhibition of growth and lethality against yeast (MIC/MLC susceptibility test), isolate B. It counts as cell-based. The settings on record: Candida tropicalis, 1st pair of lines, isolate assigned by line order.
For assay [7], the system named is Candida albicans KJP-000531594. In words: In vitro study of inhibition of growth and lethality against yeast (MIC/MLC susceptibility test), isolate C. It counts as cell-based. As to conditions: Candida albicans, Candida albicans, 1st pair of lines.
The test system of assay [8] is Candida albicans LH-000664533. In words: In vitro study of inhibition of growth and lethality against yeast (MIC/MLC susceptibility test), isolate D. It is filed as cell-based. The settings on record: Candida albicans, Candida albicans, 2nd pair of lines, isolate assigned by line order.
For assay [9], the system named is Torulopsis glabrata JHC-BC9951635. In words: In vitro study of inhibition of growth and lethality against yeast (MIC/MLC susceptibility test), isolate E. It counts as cell-based. As to conditions: Torulopsis glabrata, 2nd pair of lines, isolate assigned by line order.
For assay [10], the system named is Torulopsis glabrata ERH-BC9938274. In words: In vitro study of inhibition of growth and lethality against yeast (MIC/MLC susceptibility test), isolate F. It counts as cell-based. As to conditions: Torulopsis glabrata, 1st pair of lines, isolate assigned by line order.
The test system of assay [11] is Cryptococcus neoformans DLB-1027594CNC. In words: In vitro study of inhibition of growth and lethality against yeast (MIC/MLC susceptibility test), isolate G. It counts as cell-based. The settings on record: Cryptococcus neoformans, DLB1027594CNC, Cryptococcus neoformans, 1st pair of lines, isolate assigned by line order.
The subject of assay [12] is Cryptococcus neoformans SLP-BC0012854. In words: In vitro study of inhibition of growth and lethality against yeast (MIC/MLC susceptibility test), isolate H. As to conditions: Cryptococcus neoformans, Cryptococcus neoformans, 2nd pair of lines, isolate assigned by line order. It is filed as cell-based.
Where [13] appears, read: 37° C., 20 hours, mean of duplicate.

Each structure is given as a SMILES string. pIC50: −log10 of the molar value. Like-named read-outs stand apart in the source and are kept apart here.

T1 sequence (P08164 whole entry): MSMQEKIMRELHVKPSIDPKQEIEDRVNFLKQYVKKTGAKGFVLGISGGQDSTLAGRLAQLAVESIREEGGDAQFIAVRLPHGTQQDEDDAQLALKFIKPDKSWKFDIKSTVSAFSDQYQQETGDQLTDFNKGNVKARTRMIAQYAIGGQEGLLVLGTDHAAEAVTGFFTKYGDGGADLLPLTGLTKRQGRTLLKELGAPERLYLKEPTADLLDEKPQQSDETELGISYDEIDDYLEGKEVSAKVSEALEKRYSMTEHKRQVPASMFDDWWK

By MIC is commonly meant the least concentration at which growth counts as inhibited. As to `C[N+](C)(C)c1ccc(CC(=O)OCCCCCCCCOc2ccc(OCc3ccccc3)cc2)cc1.[I-]` [Compound 1094], the pIC50 in assay [1] is 4.70; in [1] (IC50 (μg/mL) for Inhibit. of NAD Synthetase, table of structures used in the yeast assay (Example 4)) it was 4.50. For the same compound, the MIC in assay [2] (ATCC10231, 37° C., 20 hours, mean of duplicate) stood at 6.2 µg/mL; in assay [3], 0.78 µg/mL; in assay [4], 0.78 µg/mL; in [5] (ATCC750, 24 h, read at 24 hr, read-out: Minimum Inhibitory Conc. (MIC), 24 hr.), 1 µg/mL; in assay [5] (ATCC750, 48 h, read at 48 hr, read-out: Minimum Inhibitory Conc. (MIC), 48 hr.) it was 1 µg/mL; in assay [6] (ATCC28707, 24 h, read at 24 hr, read-out: Minimum Inhibitory Conc. (MIC), 24 hr.) it was 0.5 µg/mL. In addition, the MIC was found to be 0.5 µg/mL in assay [6] (ATCC28707, 48 h, read at 48 hr, read-out: Minimum Inhibitory Conc. (MIC), 48 hr.); 1 µg/mL in [7] (KJP000531594, 24 h, read at 24 hr, isolate not given, assigned by line order and MLC of Table 4B, read-out: Minimum Inhibitory Conc. (MIC), 24 hr.); 2 µg/mL in assay [7] (KJP000531594, 48 h, read at 48 hr, isolate assigned by line order, read-out: Minimum Inhibitory Conc. (MIC), 48 hr.); 2 µg/mL in assay [8] (LH000664533, 24 h, read at 24 hr, read-out: Minimum Inhibitory Conc. (MIC), 24 hr.); 2 µg/mL in assay [8] (LH000664533, 48 h, read at 48 hr, read-out: Minimum Inhibitory Conc. (MIC), 48 hr.); 0.5 µg/mL in [9] (Nakaseomyces glabratus, JHCBC9951635, 24 h, read at 24 hr, read-out: Minimum Inhibitory Conc. (MIC), 24 hr.). In addition, the minimum inhibitory concentration (MIC) stood at 1 µg/mL in [9] (Nakaseomyces glabratus, JHCBC9951635, 48 h, read at 48 hr, read-out: Minimum Inhibitory Conc. (MIC), 48 hr.); 0.5 µg/mL in assay [10] (Nakaseomyces glabratus, ERHBC9938274, 24 h, read at 24 hr, read-out: Minimum Inhibitory Conc. (MIC), 24 hr.); 1 µg/mL in [10] (Nakaseomyces glabratus, ERHBC9938274, 48 h, read at 48 hr, read-out: Minimum Inhibitory Conc. (MIC), 48 hr.); 1 µg/mL in assay [11] (48 h, read at 48 hr, read-out: Minimum Inhibitory Conc. (MIC), 48 hr.); 1 µg/mL in assay [11] (72 h, read at 72 hr, read-out: Minimum Inhibitory Conc. (MIC), 72 hr.); 1 µg/mL in assay [12] (SLPBC0012854, 48 h, read at 48 hr, read-out: Minimum Inhibitory Conc. (MIC), 48 hr.). The MIC in assay [12] (SLPBC0012854, 72 h, read at 72 hr, read-out: Minimum Inhibitory Conc. (MIC), 72 hr.) was 1 µg/mL. Besides, the MFC worked out at 4 µg/mL in [5] (ATCC750, read-out: Minimum Lethal Conc. (MLC)); 2 µg/mL in assay [6] (ATCC28707, read-out: Minimum Lethal Conc. (MLC)); 8 µg/mL in [8] (LH000664533, read-out: Minimum Lethal Conc. (MLC)); 4 µg/mL in assay [9] (Nakaseomyces glabratus, JHCBC9951635, read-out: Minimum Lethal Conc. (MLC)); 4 µg/mL in assay [10] (Nakaseomyces glabratus, ERHBC9938274, read-out: Minimum Lethal Conc. (MLC)); 2 µg/mL in assay [11] (read-out: Minimum Lethal Conc. (MLC)). The MFC in [12] (SLPBC0012854, read-out: Minimum Lethal Conc. (MLC)) was 2 µg/mL. For the same compound, the “Minimum Inhibitory Conc. (MIC), 24 hr.” value in assay [9] (read at 24 hr) and in [10] (read at 24 hr) was 1 µg/mL in each case.
With `COC(=O)c1cc2ccccc2n1CCCCCCCOC(=O)Cc1ccc([N+](C)(C)C)cc1` [Compound 984], the minimum inhibitory concentration (MIC) in assay [2] (ATCC10231, 20 h) amounted to 0.78 µg/mL.
As to `C[N+](C)(C)c1ccc(CC(=O)OCCCCCCCCn2ccc3cc(OCc4ccccc4)ccc32)cc1` [Compound 749], the “MIC Candida albicans (ATCC 10231)” value in assay [2] (setting [13]) was determined as 1.6 µg/mL.
For `C[n+]1cccc(C(=O)OCCCCCCCCCn2ccc3ccccc32)c1` [Compound 970], the pIC50 in [1] (read-out: IC50: concentration of test compound producing 50% inhibition of the NAD synthetase enzyme rate, Table 1, recombinant B. subtilis NAD synthetase, absorbance at 340 nm) was 4.70. The “MIC Candida albicans (ATCC 10231)” value in assay [2] (setting [13]) worked out at 0.8 µg/mL.
